Results on two molecules are retold here after patent US6670329B2, “Selenocosmia huwena toxin and analgesic uses thereof” (priority 2000, dated 2003).

Where “and” joins values, the source holds several entries; their conditions need not be identical. Identical values can stand only once.

The EC50 is the concentration at which the effect is half-maximal.

In series [1] the test system is mouse phrenic nerve-diaphragm preparation. Briefly: mouse phrenic nerve-diaphragm assay for inhibition of neuromuscular transmission.
The test system of another series is rats. Briefly: rat tail flick pain threshold, subarachnoid space administration. Format: in vivo. The settings on record: for increase of pain threshold: in an hour. How it is done: The method was testing using the rat experimental system. After anesthesia, the neck skin of a rat was cut. The occcipital membrane was exposed and a hole with 1 mm diameter was made with #5 needle. […] The insertion position of the tube was later confirmed by anatomization after experiment.
Assays were performed in 1-3 days after the operation. 28 rats (130-230 g), of either gender, whose basic pain thresholds were within 2-4 seconds, were chosen and divided randomly into four groups of seven rats.

The test system of series [2] is high-voltage-activated Ca2+ channel expressed in prostaglandin E1 differentiated NG108-15 cells. Briefly: Ca2+ channel inhibition assay (patch clamp, Ba2+ as charge carrier). Format: cell-based. As for the experimental part:
(§1) Ca^2+ channel Inhibition Assay. […] Cells were cultured in 90% Dulbecco's modified Eagle's medium (DMEM) with 10% newborn calf serum, hypoxanthine aminopterin thymidine supplement and penicillin-streptomycin. Cells were transferred to plates for electrophysiological experiments and cultured with 1% calf serum and […] DMEM. Prostaglandin E1 (10 μM) and 3-isobutyl-1-methylxanthine (50 μM) were added to the medium. Macroscopic Ca^2+ channel currents (filtered at 10 kHz, digitized at […] with a EPC-9 patch clamp amplifier, HEKA Electronics, Germany) were recorded at room temperature using Ba^2+ as the charge carrier. Cells were held at −40 mV potential and then depolarized to 0 mV. […] Inhibition was dose dependent. The EC50 for inhibition was approximately 100 nM (EC50≈100 nM). HWAP-I is highly specific for this channel as the low-voltage-activated Ca^2+ channel was unaffected.
(In patch-clamp work, channel activity is measured electrically.)

Series [3] has as its system low-voltage-activated Ca2+ channel. Briefly: Ca2+ channel inhibition assay, low-voltage-activated channel. Format: cell-based. As for the experimental part: as §1
The test system of a further series is Sprague-Dawley rats. As to conditions: rat, in vivo. As for the experimental part:
Adult Sprague-Dawley rats were anesthetized with 2% sodium pentobarbital (40 mg/kg, ip.). The neck skin was cut to expose the occipital membrane. HWAP-I, formulated in normal saline, was administered by a PE-10 polyethylene tube (14 cm) inserted into the epidural space (depth of insert: 7 cm) to the site of intumescence at the rats' waist. The insertion position of the tube was confirmed by anatomization after the experiment.
Pain tolerance assays were performed 1-4 days after the operation. A healthy rat was put into a fixed canister with its tail drooping from the bottom of the vessel. There were three spots on the tail labeled for irradiation. The intensity of light was adjusted so that the tail flick latency (TFL) of rat was within 2-4 seconds. The average of TFLs determined three times before drug treatment was deemed the baseline pain threshold of the rat. HWAP-I was administered to the rat using the inserted tube. After 20 minutes, the pain threshold was determined. The analgesic effect (AE) was calculated according the following formula: [formula]
wherein Tp is the TLF post-drug treatment, and TB is the baseline pain threshold.
The upper limit of the increased rate of pain threshold was 200% in order to avoid hurting the skin of rat-tail, e.g.., when the baseline pain threshold was 3 seconds. Irradiation was stopped as soon as the TFL exceeded 9 seconds.
54 rats (160-220 g), of either gender, whose TB basic pain thresholds were within 3-4 seconds, were chosen and divided randomly into six groups of nine rats. The rats in each group were treated with HWAP-I at a dose of 120 μg/kg, 180 μg/kg, 240 μg/kg, 300 μg/kg, 360 μg/kg respectively and with normal saline in control group.

For a further series, the system named is New Zealand rabbits. The settings on record: rabbit, in vivo.

With “NH2-Ala-Cys-Lys-Gly-Val-Phe-Asp-Ala-Cys-Thr-Pro-Gly-Lys-Asn-Glu-Cys -Cys-Pro-Asn-Arg-Val-Cys-Ser-Asp-Lys-His-Lys-Trp-Cys-Lys-Trp-Lys-Leu-COOH (H-ACKGVFDACTPGKNECCPNRVCSDKHKWCKWKL-OH; cysteine pairing not given here) [HWAP-I]”, the “duration of block of neuromuscular transmission” value in series [1] (1·10^−5 g/ml) was found to be 14.3 ± 3.2 min. In addition, the “effect on indirect twitch response” value in series [1] (electrical stimulation of phrenic nerve) was “inhibition of the indirect twitch response”. The “duration of analgesic effect compared with morphine hydrochloride (5 μg/kg)” value with rats (subarachnoid) is reported as “longer than that of morphine”. Moreover, in the series with rats (subarachnoid, 1.5 μg/kg), the “increase of pain threshold” value is given as 40-50%. Also, in the series with rats (subarachnoid, 3.0 μg/kg), the “duration of analgesic effect” value was “over 3 hours” and the “increase of pain threshold” value worked out at 100%. The adverse effects result with rats (subarachnoid, 8 μg/kg, most restored to normal without sequela) is “becoming ataxic in the quarters”. Besides, the analgesic effect entry in the series with rats (subarachnoid, 0.6, 1.5, 3.0 μg/kg) is recorded as “had analgesic effects”. In series [2] (10 μM, held at −40 mV, depolarized to 0 mV), the “inhibition of the Ca2+ current” value was “potent inhibitor”. In addition, in series [2] (NG108-15 cells, room temperature, read-out: EC50 for inhibition of Ca2+ current), the EC50 is about 100 nM. Also, the “effect on low-voltage-activated Ca2+ channel” value in series [3] was “unaffected”. In the series with Sprague-Dawley rats, the adverse effects result is “ataxia in the quarters”; the analgesic effect entry is given as “had analgesic effects”; the “duration time of analgesic effect” value is given as “over 3 hours”; the “increase of pain threshold” value was 50-70% and 100%. In the series on New Zealand rabbits, the “analgesic effect in formalin pain model” value is “potent and robust analgesic effect”; the “duration of the analgesic effect” value lay within 5 to 6 h; the toxic side effects result is on record as “no obvious toxic side effects were observed”.
`CN1CC[C@]23c4c5ccc(O)c4O[C@H]2[C@@H](O)C=C[C@H]3[C@H]1C5.Cl` [morphine, morphine hydrochloride, reference compound]: in the series on Sprague-Dawley rats, the “analgesic effect decreased from maximum to, within a single hour” value turned out to be 50%.
